In ChEMBL document CHEMBL2203217, “Prohormone-substrate peptide sequence recognition by peptidylglycine α-amidating monooxygenase and its reflection in increased glycolate inhibitor potency” (Bioorg Med Chem Lett, 2012) one finds IC50 data, which are given here for one compound.

By IC50 is commonly meant the concentration at which inhibition is half-maximal.

The target of assay [1] is T1, Peptidyl-glycine alpha-amidating monooxygenase (Homo sapiens, UniProt P19021).
T1 sequence (P19021 whole entry): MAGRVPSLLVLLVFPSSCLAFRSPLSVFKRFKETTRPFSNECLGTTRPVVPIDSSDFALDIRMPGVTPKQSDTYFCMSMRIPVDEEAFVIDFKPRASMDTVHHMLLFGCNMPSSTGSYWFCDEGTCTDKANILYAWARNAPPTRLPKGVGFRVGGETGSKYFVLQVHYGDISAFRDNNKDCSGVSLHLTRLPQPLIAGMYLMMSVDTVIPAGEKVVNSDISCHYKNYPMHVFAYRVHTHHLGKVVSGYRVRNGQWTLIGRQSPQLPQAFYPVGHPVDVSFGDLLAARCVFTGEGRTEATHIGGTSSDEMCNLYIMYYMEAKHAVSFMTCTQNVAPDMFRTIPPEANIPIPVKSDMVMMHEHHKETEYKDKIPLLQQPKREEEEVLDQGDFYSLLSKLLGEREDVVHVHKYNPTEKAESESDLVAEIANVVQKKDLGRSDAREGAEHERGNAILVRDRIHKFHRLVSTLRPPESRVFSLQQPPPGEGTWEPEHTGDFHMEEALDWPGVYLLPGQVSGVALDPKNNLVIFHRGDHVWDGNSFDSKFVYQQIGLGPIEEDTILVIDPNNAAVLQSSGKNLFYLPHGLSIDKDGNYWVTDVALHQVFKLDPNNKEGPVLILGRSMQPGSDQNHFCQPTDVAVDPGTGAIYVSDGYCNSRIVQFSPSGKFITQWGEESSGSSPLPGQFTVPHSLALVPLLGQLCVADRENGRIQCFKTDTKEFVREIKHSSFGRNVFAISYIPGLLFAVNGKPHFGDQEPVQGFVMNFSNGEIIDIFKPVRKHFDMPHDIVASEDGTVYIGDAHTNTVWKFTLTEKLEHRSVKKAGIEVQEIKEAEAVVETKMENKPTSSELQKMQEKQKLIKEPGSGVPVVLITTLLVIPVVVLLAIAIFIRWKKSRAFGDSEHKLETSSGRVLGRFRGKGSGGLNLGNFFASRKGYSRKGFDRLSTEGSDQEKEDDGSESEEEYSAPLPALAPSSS
As to the kind of experiment: Competitive inhibition of PAM in human DMS53 cells using as(R)-Tyr-(S)-Val-Gly as substrate after 2 hrs by HPLC analysis. It counts as cell-based, DMS-53.

Assay [2] deals with T1, Peptidyl-glycine alpha-amidating monooxygenase. The assay is described as follows: Competitive inhibition of secreted PAM in human DMS53 cell culture medium using as(R)-Tyr-(S)-Val-Gly as substrate after 2 hrs by HPLC analysis. Further details: species or system DMS-53.

In the case of `CC(=O)OCC(=O)O`, the 50% inhibitory concentration (IC50) in assay [1] and in assay [2] was 1.1 mM throughout.
